The target in this assay is T1, human bitter receptor TAS2R39 (Homo sapiens, UniProt P59534).
T1 construct: expressed in transfected cells; host or cells: HEK293 (tetracycline/doxycycline-inducible expression; blasticidin, geneticin and hygromycin selection)
T1 sequence (P59534 1-338): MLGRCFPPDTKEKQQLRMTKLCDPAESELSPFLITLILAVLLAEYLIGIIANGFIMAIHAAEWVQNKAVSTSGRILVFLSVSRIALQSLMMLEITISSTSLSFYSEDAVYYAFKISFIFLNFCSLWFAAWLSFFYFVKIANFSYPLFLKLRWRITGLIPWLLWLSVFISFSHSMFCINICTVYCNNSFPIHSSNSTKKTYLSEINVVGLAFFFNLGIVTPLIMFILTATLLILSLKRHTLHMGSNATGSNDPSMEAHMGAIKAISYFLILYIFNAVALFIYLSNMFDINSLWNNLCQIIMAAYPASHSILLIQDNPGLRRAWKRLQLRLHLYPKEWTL
The assay can be described thus: Inhibition of ECG stimulation of TAS2R39, intracellular calcium (Fluo4-AM fluorescence) assay. The format is cell-based. The conditions noted are these: for % inhibition of TAS2R39: HEK293 cells expressing TAS2R39, test solution 0.5 mM ECG and 10 mM test compound in Tyrodes buffer, percentage reduction of ΔF vs ECG alone; for effectiveness as inhibitor of TAS2R39 compared with gallic acid: comparison of % inhibition in Table 1 with gallic acid. The text has this: Activation of the bitter receptor TAS2R39 causes the release of calcium from the endoplasmic reticulum of those cells containing the receptor. Therefore, changes in calcium levels within cells expressing TAS2R39 serves as a proxy marker for the activity of the receptor. An assay was used to assess the stimulation of TAS2R39 by the flavan-3-ol epicatechin gallate (ECG) and to assess the inhibition of this stimulation of TAS2R39 through the use of various compounds as follows:
HEK293 cells expressing the human bitter receptor TAS2R39 and a G-protein that allows coupling to a calcium readout system were maintained in Dulbecco's Modified Eagle's Medium (DMEM) containing DMEM and 10% tetracycline-free fetal bovine serum (Cambrex) supplemented with blasticidin (5 μg/ml) geneticin (400 μg/ml) and hygromycin (100 μg/ml). Cells were grown and maintained at 37° C./5% CO2.
Cells were cultured in a 75 cm^2 flask, harvested by trypsinisation and resuspended in DMEM medium. 100 μl of cells per well were added to a poly-L-lysine coated μClear 96-well plate, and incubated overnight. Expression of the TAS2R39 gene was then induced by the addition of 100 μl DMEM medium containing 0.5 μg/ml doxycyclin. After another 24-30 hrs the medium was removed and the cells were loaded for 1 hour with 50 μl Tyrodes buffer (140 mM NaCl, 5 mM KCl, 10 mM glucose, 1 mM CaCl2.2H2O, 1 mM MgCl2.6H2O, 20 mM HEPES pH 7.4 (Sigma P8761)) containing 2.5 μM of the fluorescent marker of calcium, Fluo4-AM, followed by a 1-hr incubation at 37° C. The cells were then washed with Tyrodes buffer and finally taken up in 100 μl, Tyrodes buffer.
Test solutions containing 0.5 mM ECG and 10 mM of the test compounds, dissolved in Tyrodes buffer, were prepared and 100 μl of each test solution was added to the wells of the 96-well plate containing the cells. A comparative solution containing only 0.5 mM ECG dissolved in Tyrodes buffer was also prepared and 100 μl was added to a well of the 96-well plate containing the cells.
Intracellular calcium levels were monitored using a Flexstation II 384. The 96-well plate was loaded onto the Flexstation II 384 and fluorescence measurements were carried out at 37° C. at an excitation wavelength of 485 nm and an emission wavelength of 520 nm. Activity of TA52R39 was measured as the change in fluorescence (ΔF) which was calculated by subtracting the […] measured before addition of the test or comparative solution.
Inhibition of TAS2R39 activity was measured as the percentage reduction of ΔF in the presence of ECG alone, compared to ΔF in the presence of ECG plus a test compound. 3,4,5-trihydroxybenzoic acid (gallic acid) was included in the selection of the test compounds.
A general note: Calcium assays in cells follow changes in intracellular calcium, usually with a dye or a luminescent sensor.

Take `COc1ccc(/C=C/C(=O)O)c(OC)c1` [2,4-dimethoxycinnamic acid]: the “% inhibition of TAS2R39” value is reported as 40% and the “effectiveness as inhibitor of TAS2R39 compared with gallic acid” value is listed as “more effective inhibitors of TAS2R39 than gallic acid”.

On to `COc1cccc(C(=O)O)c1O` [2-hydroxy-3-methoxybenzoic acid, reference compound], for which the “% inhibition of TAS2R39” value amounted to 25%.

For the compound `COc1ccccc1C(=O)O` [2-methoxybenzoic acid, reference compound], the “% inhibition of TAS2R39” value is given as 10%.

Turning to `COc1ccccc1/C=C/C(=O)O` [2-methoxycinnamic acid, reference compound], the “% inhibition of TAS2R39” value was 0%.

With `O=C(O)c1cc(O)c(O)c(O)c1` [3,4,5-trihydroxybenzoic acid, reference compound], the “% inhibition of TAS2R39” value came to 25%.

On to `COc1cc(C(=O)O)cc(OC)c1OC` [3,4,5-trimethoxybenzoic acid, reference compound], for which the “% inhibition of TAS2R39” value came out at 20%.

`COc1cc(/C=C/C(=O)O)cc(OC)c1OC` [3,4,5-trimethoxycinnamic acid, 3,4,5-trimethoxycinnamic acid]: the “% inhibition of TAS2R39” value amounted to 70% and the “effectiveness as inhibitor of TAS2R39 compared with gallic acid” value is given as “more effective inhibitors of TAS2R39 than gallic acid”.

With `COc1cc(CC(=O)O)cc(OC)c1OC` [3,4,5-trimethoxyphenylacetic acid, reference compound], the “% inhibition of TAS2R39” value was found to be 25%.

Regarding `O=C(O)c1ccc(O)c(O)c1` [3,4-dihydroxybenzoic acid, reference compound], the “% inhibition of TAS2R39” value stood at 15%.

Turning to `O=C(O)/C=C/c1ccc(O)c(O)c1` [3,4-dihydroxycinnamic acid], the “% inhibition of TAS2R39” value is listed as 30% and the “effectiveness as inhibitor of TAS2R39 compared with gallic acid” value is “more effective inhibitors of TAS2R39 than gallic acid”.

On to `O=C(O)Cc1ccc(O)c(O)c1` [3,4-dihydroxyphenylacetic acid, reference compound], for which the “% inhibition of TAS2R39” value worked out at 15%.

Take `COc1ccc(C(=O)O)cc1OC` [3,4-dimethoxybenzoic acid, reference compound]: the “% inhibition of TAS2R39” value came to 10%.

Take `COc1ccc(/C=C/C(=O)O)cc1OC` [3,4-dimethoxycinnamic acid]: the “effectiveness as inhibitor of TAS2R39 compared with gallic acid” value is “more effective inhibitors of TAS2R39 than gallic acid”.

Take `COc1cc(/C=C/C(=O)O)cc(OC)c1` [3,5-dimethoxycinnamic acid, reference compound]: the “% inhibition of TAS2R39” value was found to be 20%.

With `COc1cc(CCC(=O)O)cc(OC)c1OC` [3-(3,4,5-trimethoxyphenyl)propanoic acid], the “% inhibition of TAS2R39” value turned out to be 35% and the “effectiveness as inhibitor of TAS2R39 compared with gallic acid” value is on record as “more effective inhibitors of TAS2R39 than gallic acid”.

Take `O=C(O)CCc1ccc(O)c(O)c1` [3-(3,4-dihydroxyphenyl) propanoic acid, 3-(3,4-dihydroxyphenyl)propanoic acid]: the “% inhibition of TAS2R39” value came out at 30% and the “effectiveness as inhibitor of TAS2R39 compared with gallic acid” value is “more effective inhibitors of TAS2R39 than gallic acid”.

Regarding `COc1ccc(CCC(=O)O)cc1OC` [3-(3,4-dimethoxyphenyl) propanoic acid, 3-(3,4-dimethoxyphenyl)propanoic acid], the “% inhibition of TAS2R39” value was found to be 35% and the “effectiveness as inhibitor of TAS2R39 compared with gallic acid” value is listed as “more effective inhibitors of TAS2R39 than gallic acid”.

Take `COc1cc(CCC(=O)O)ccc1O` [3-(3-methoxy-4-hydroxyphenyl)propanoic acid]: the “% inhibition of TAS2R39” value came to 35% and the “effectiveness as inhibitor of TAS2R39 compared with gallic acid” value is listed as “more effective inhibitors of TAS2R39 than gallic acid”.

Turning to `O=C(O)CCc1ccc(O)cc1` [3-(4-hydroxyphenyl) propanoic acid, reference compound], the “% inhibition of TAS2R39” value is reported as 25%.

As to `COc1ccc(CCC(=O)O)cc1` [3-(4-methoxyphenyl) propanoic acid, 3-(4-methoxyphenyl)propanoic acid], the “% inhibition of TAS2R39” value amounted to 40% and the “effectiveness as inhibitor of TAS2R39 compared with gallic acid” value is reported as “more effective inhibitors of TAS2R39 than gallic acid”.

Consider `COc1cc(/C=C/C(=O)O)ccc1O` [3-methoxy-4-hydroxycinnamic acid, 3-methoxy-4-hydroxycinnamic acid], for which the “% inhibition of TAS2R39” value is 65% and the “effectiveness as inhibitor of TAS2R39 compared with gallic acid” value is “more effective inhibitors of TAS2R39 than gallic acid”.

`COc1cccc(C(=O)O)c1` [3-methoxybenzoic add, reference compound]: the “% inhibition of TAS2R39” value is given as 5%.

As to `COc1cccc(/C=C/C(=O)O)c1` [3-methoxycinnamic acid, reference compound], the “% inhibition of TAS2R39” value turned out to be 0%.

For `O=C(O)/C=C/c1ccccc1` [3-phenyl propenoic acid (Cinnamic acid), 3-phenyl propenoic acid], the “% inhibition of TAS2R39” value came out at 40% and the “effectiveness as inhibitor of TAS2R39 compared with gallic acid” value is given as “more effective inhibitors of TAS2R39 than gallic acid”.

Take `O=C(O)CCc1ccccc1` [3-phenylpropanoic acid, reference compound]: the “% inhibition of TAS2R39” value is on record as 15%.

With `COc1cc(/C=C/C(=O)O)cc(OC)c1O` [4-hydroxy-3,5-dimethoxycinnamic acid, 4-hydroxy-3,5-dimethoxycinnamic acid], the “% inhibition of TAS2R39” value is listed as 65% and the “effectiveness as inhibitor of TAS2R39 compared with gallic acid” value is listed as “more effective inhibitors of TAS2R39 than gallic acid”.

With `O=C(O)c1ccc(O)cc1` [4-hydroxybenzoic acid, reference compound], the “% inhibition of TAS2R39” value amounted to 25%.

On to `O=C(O)/C=C/c1ccc(O)cc1` [4-hydroxycinnamic acid], for which the “% inhibition of TAS2R39” value was determined as 40% and the “effectiveness as inhibitor of TAS2R39 compared with gallic acid” value was “more effective inhibitors of TAS2R39 than gallic acid”.

As to `O=C(O)Cc1ccc(O)cc1` [4-hydroxyphenylacetic acid, reference compound], the “% inhibition of TAS2R39” value is 20%.

With `COc1ccc(C(=O)O)cc1` [4-methoxybenzoic acid, reference compound], the “% inhibition of TAS2R39” value was determined as 15%.

Turning to `COc1ccc(/C=C/C(=O)O)cc1` [4-methoxycinnamic acid], the “% inhibition of TAS2R39” value came to 30% and the “effectiveness as inhibitor of TAS2R39 compared with gallic acid” value is given as “more effective inhibitors of TAS2R39 than gallic acid”.

With `COc1ccc(CC(=O)O)cc1` [4-methoxyphenylacetic acid, reference compound], the “% inhibition of TAS2R39” value is recorded as 15%.

As for `O=C(O)CCCc1ccccc1` [4-phenylbutanoic acid], the “% inhibition of TAS2R39” value worked out at 40% and the “effectiveness as inhibitor of TAS2R39 compared with gallic acid” value is listed as “more effective inhibitors of TAS2R39 than gallic acid”.

In the case of `O=C(O)Cc1ccccc1` [Phenylacetic acid, reference compound], the “% inhibition of TAS2R39” value is 5%.

Take `N[C@@H](Cc1ccccc1)C(=O)O` [Phenylalamine, reference compound]: the “% inhibition of TAS2R39” value is listed as 0%.

Consider Benzoic acid [reference compound], for which the “% inhibition of TAS2R39” value was 20%.

The values above are taken from patent publication US20100062131A1, “FLAVAN-3-OL CONTAINING FOODSTUFFS” (CONOPCO, INC., D/B/A UNILEVER, priority 2008, published 2010).
